Several values for one entry are separate records, joined by “and”; a condition that tells them apart may be missing. Identical values can stand only once. Entries after “also recorded” stand apart in the source; their conditions may differ. Like-named read-outs stand apart in the source and are kept apart here.
What was measured:
[1] = system: lymphoid leukemia L1210; settings: cited from earlier work; for activity in L1210: prior testing
[2] = system: B16 melanocarcinoma; format: in vivo, murine; settings: for OD: QD1-9, Table IX; for ILS: QD1-9, at OD, Table IX
[3] = system: ependymoblastoma; format: in vivo, murine; settings: for OD: QD1-5, Table X; for ILS: QD1-5, at OD; for ILS / animals alive per 6: Table X; for animals alive per 6: QD1-5, day 60, at OD; for survivors, EM: parentheses, per 6
From the text: ^c Ic tumor implantation, ip QD15 treatment schedule.
(§1) A third IC tumor model, the ependymoblastoma system, was also studied. This system requires intracerebral implantation of a solid tumor fragment while the IC L1210 and IC P388 systems utilize IC inoculated ascites tumor fluid. All three use IP drug treatment however. […] Cures (survivors from the group of six mice on the last day of the experiment) are indicated.

[4] = system: lymphoid leukemia L1210; settings: for survivors, IP L1210: Table XI, parentheses, per 6
From the text: ^b Ip tumor implantation, ip QD19 treatment schedule.
^e ILS = [(treated survival + control survival) × 100%] - 100%
The L1210, P388 and B16 test systems described in Table II utilize intraperitoneal (IP) tumor implantation and IP drug treatment while the Lewis lung system employs subcutaneous tumor implantation and IP treatment. All three CNS tumor models (Table III) use intracerebral (IC) tumor implantation and IP treatment.
Aqueous saline solution (0.9%) was used as the drug vehicle. Normally, five doses were employed per experiment with the top dose chosen to produce toxicity. The lower doses were 50% of each preceeding dose.
Consistent with NCI antitumor test protocols, intraperitoneal (IP) administration of the drug was employed with all five tumor systems investigated. Tumor implantation was IP in the systems designated IP leukemia L1210 and P388 as well as B16 melanoma. Intracerebral (IC) tumor implantation was utilized in the IC L1210 and ependymoblastoma tumor systems.

[5] = system: lymphoid leukemia L1210; format: in vivo, murine
From the text: as §1

[6] = system: lymphocytic leukemia P388; format: in vivo, murine; settings: for ILS: QD1-9, at OD; for OD: QD1-9, Table IX
[7] = reported; Europe / Japan; cited from earlier work
[8] = Day 1 only (1 injection), Table VIII
[9] = QD1-9 (9 injections), Table VIII
[10] = QD1-9, day 30, at OD, Table VIII

Row | Compound | activity in L1210 [1] | OD [2] | ILS [2] | OD [3] | ILS [3] | OD [4, 8] | ILS ([4]; Day 1 only, at OD, Table VIII) | OD ([4]; Q4D (day 1,5,9), Table VIII) | ILS ([4]; Q4D, at OD, Table VIII) | OD [4, 9] | ILS ([4]; QD1-9, at OD, Table VIII) | ILS ([5]; QD1-9, at OD, Table X) | ILS ([6]; Table IX) | OD [6] | also measured
1 | CC(=O)NC1=C(Cl)C(=O)C(NC(C)=O)=C(Cl)C1=O [Compound 20, 2,5-dichloro-3,5-acetylamino-1,4-benzoquinone] | inactive | – | – | – | – | – | – | – | – | – | – | – | – | – | –
2 | CCNC1=C(N2CC2)C(=O)C(NCC)=C(N2CC2)C1=O [Compound 35, 2,5-DIAZIRIDINYL-3,6-BIS(ETHYLAMINO)-1,4-BENZOQUINONE] | – | 0.4 mg/kg/injection and 0.7 mg/kg/injection | 26% and 24% | 1.5 mg/kg/injection | 218% and 187% | 1.5 mg/kg/injection | 68% and 54% | 3.0 mg/kg/injection and 1.5 mg/kg/injection | 75% and 57% | 1.5 mg/kg/injection | 112% and 91% | 44% and 40% | 160% and 103% | – | activity in ependymoblastoma [3]: most active; animals alive per 6 [3]: 2; survivors, EM ([3]; Table XI): 2; activity in IP L1210 [4]: activity appears to peak; T-C ([4]; QD1-9, day 5, at OD, Table VIII): -3.3 grams; animals alive per 6 [4, 10]: 2 and 1; survivors, IP L1210 [4]: 2; OD ([5]; QD1-9, Table X): 3.0 mg/kg/injection
3 | CN(CCO)C1=C(N2CC2)C(=O)C(N(C)CCO)=C(N2CC2)C1=O [Compound 42] | – | 0.8 mg/kg/injection | 47% and 31% | 0.4 mg/kg/injection and 0.2 mg/kg/injection | 84% and 69% | – | -5% | 0.4 mg/kg/injection and 0.2 mg/kg/injection | – | 1.5 mg/kg/injection | 114% and 111% | 45% and 32% | 162% | 1.6 mg/kg/injection and 0.8 mg/kg/injection | activity in B16 melanoma [2]: approached minimal reproducible activity; animals alive per 6 [4, 10]: 1; survivors, IP L1210 [4]: 1; OD ([5]; QD1-9, Table X): 4.0 mg/kg/injection and 2.0 mg/kg/injection
4 | CC(=O)NC1=C(N2CC2)C(=O)C(NC(C)=O)=C(N2CC2)C1=O [Compound 27, reference compound] | intraperitoneal (IP) leukemia L1210 activity | – | – | – | – | – | – | – | – | – | – | – | – | – | –
5 | O=C1C=C(N2CC2)C(=O)C(N2CC2)=C1N1CC1 [Compound 29, Trenimon] | – | – | – | – | – | – | – | – | – | – | – | – | – | – | clinical activity [7]: Clinical activity has been reported
6 | COC1=C(Br)C(=O)C(OC)=C(Br)C1=O [Compound 14, 2,5-dibromo-3,6-dimethoxy-1,4-benzoquinone] | inactive | – | – | – | – | – | – | – | – | – | – | – | – | – | –
7 | NC(=O)CNC1=C(N2CC2)C(=O)C(NCC(N)=O)=C(N2CC2)C1=O [Compound 40] | – | – | 37% and 22% | 2.0 mg/kg/injection and 1.0 mg/kg/injection | 64% and 50% | 10.0 mg/kg/injection | 21% and 15% | 8.0 mg/kg/injection | – | 10.0 mg/kg/injection | 92% and 91% | 16% | 85% and 71% | 2.0 mg/kg/injection | –
8 | O=C1C(N2CC2)=C(N2CC2)C(=O)C(N2CC2)=C1N1CC1 [tetraaziridinyl derivative, reference compound] | – | – | – | – | – | – | – | – | – | – | – | – | – | – | ILS ([1]; L1210 leukemia, earlier evaluation): 39%
9 | COC1=C(N2CC2)C(=O)C(OC)=C(N2CC2)C1=O [Compound 28, reference compound] | intraperitoneal (IP) leukemia L1210 activity | – | – | – | – | – | – | – | – | – | – | – | – | – | –
10 | O=C1C(Cl)=C(Cl)C(=O)C(Cl)=C1Cl [chloranil, tetrachlorobenzoquinone, reference compound] | inactive | – | – | – | – | – | – | – | – | – | – | – | – | – | –
11 | CN(C)C1=C(N2CC2)C(=O)C(N(C)C)=C(N2CC2)C1=O [Compound 41, 2,5-DIAZIRIDINYL-3,6-BIS(DIMETHYLAMINO)-1,4-BENZOQUINONE] | – | 0.2 mg/kg/injection | 16% and 12% | 1.0 mg/kg/injection and 0.5 mg/kg/injection | 215% and 190% | 1.5 mg/kg/injection | 21% and 15% | 3.0 mg/kg/injection | 120% and 73% | – | – | – | 74% and 37% | 1.0 mg/kg/injection and 0.5 mg/kg/injection | activity in ependymoblastoma [3]: among the most active materials; animals alive per 6 [3]: 5 and 4; survivors, EM ([3]; Table XI): 5; animals alive per 6 ([4]; Q4D, day 30, at OD, Table VIII): 1; survivors, IP L1210 [4]: 1; activity in IC L1210 [5]: most active; also recorded: significant activity; OD ([5]; Q4D(1,5,9), Table X): 3.0 mg/kg/injection; ILS ([5]; Q4D(1,5,9), at OD, Table X): 72% and 56%
12 | O=C1C(N2CC2)=C(N2CCCC(O)C2)C(=O)C(N2CC2)=C1N1CCCC(O)C1 (stereo not drawn) [Compound 45] | – | 1.0 mg/kg/injection | 40% and 37% | – | 64% and 48% | – | – | 6.0 mg/kg/injection and 4.0 mg/kg/injection | 104% and 84% | 3.0 mg/kg/injection | 59% and 44% | – | 95% and 78% | 1.0 mg/kg/injection | activity in B16 melanoma [2]: approached minimal reproducible activity; animals alive per 6 ([4]; Q4D, day 30, at OD, Table VIII): 2; OD ([5]; Q4D(1,5,9), Table X): 8.0 mg/kg/injection and 6.0 mg/kg/injection
13 | CNC1=C(N2CC2)C(=O)C(NC)=C(N2CC2)C1=O [Compound 34] | – | – | 39% and 29% | 0.2 mg/kg/injection and 0.4 mg/kg/injection | 219% and 218% | 0.7 mg/kg/injection | – | 0.8 mg/kg/injection and 0.4 mg/kg/injection | 57% and 56% | 0.2 mg/kg/injection | 73% and 61% | 68% and 60% | 95% and 69% | 0.2 mg/kg/injection and 0.1 mg/kg/injection | activity in B16 melanoma [2]: approached minimal reproducible activity; activity in ependymoblastoma [3]: among the most active materials; animals alive per 6 [3]: 5 and 4; survivors, EM ([3]; Table XI): 5; animals alive per 6 [4, 10]: 1; activity in IC L1210 [5]: most active; also recorded: significant activity; OD ([5]; QD1-9, Table X): 0.4 mg/kg/injection and 0.2 mg/kg/injection
14 | NC1=C(Cl)C(=O)C(N)=C(Cl)C1=O [Compound 19] | inactive | – | – | – | – | – | – | – | – | – | – | – | – | – | –
15 | O=C1C(Cl)=C(N2CC2)C(=O)C(Cl)=C1N1CC1 [Compound 4, 2,5-dichloro-3,6-diaziridinyl-1,4-benzoquinone] | inactive | – | – | – | – | – | – | – | – | – | – | – | – | – | –
16 | O=C1C(NCC(O)CO)=C(N2CC2)C(=O)C(NCC(O)CO)=C1N1CC1 (stereo not drawn) [Compound 39] | – | 4.0 mg/kg/injection and 6.0 mg/kg/injection | 50% and 42% | – | 99% and 53% | 4.0 mg/kg/injection and 2.0 mg/kg/injection | 89% | 4.0 mg/kg/injection and 8.0 mg/kg/injection | 90% and 79% | 4.0 mg/kg/injection and 2.0 mg/kg/injection | 206% | 43% and 41% | 143% | 4.0 mg/kg/injection | activity in B16 melanoma [2]: reproducibly active; activity in ependymoblastoma [3]: moderate to good EM activity; animals alive per 6 [3]: 1; ILS (%) EM ([3]; Table XI, outstanding activity): 99%; survivors, EM ([3]; Table XI): 1; survivors, EM ([3]; repeat test): 6; activity in IP L1210 [4]: Excellent activity; also recorded: produced cures; also recorded: probably the most active compound in the IP ascites systems; animals alive per 6 ([4]; Day 1 only, day 30, at OD, Table VIII): 4; survivors, IP L1210 [4]: 5; activity in IC L1210 [5]: marginal IC L1210 activity; OD ([5]; QD1-9, Table X): 4.0 mg/kg/injection; activity in IP P388 [6]: very active producing multiple cures; animals alive per 6 ([6]; QD1-9, day 30, at OD, Table IX): 6 and 4; survivors, P388 ([6]; Table XI, parentheses, per 6): 6

— patent US4704384A, “Aziridinyl quinone antitumor agents” (priority 1981, dated 1987)
